In one series the test system is HBV. As to the kind of experiment: Proliferation of HBV in HBV producing cell line HepG 2.2.15 (competitive PCR of culture supernatant). Type of series: cell-based, Hepatitis B virus. To be noted: HepG 2.2.15, one week; for inhibition at 0.01 µg/mL / inhibition at 0.1 µg/mL / inhibition at 1 µg/mL: Hepatitis B virus, HepG2.2.15, 168 h, read-out: Inhibitory effect on the HBV proliferation: Inhibition activity on HBV-RT (%). The protocol:
<Experiment 2> Inhibitory Effect on the Proliferation of HBV in HBV Producing Cell Line
The following experiment was performed to determine inhibitory effects of compounds of formula 1 on the proliferation of HBV producing cell line.
To test for antiviral effect, replication and proliferation of HBV were measured in HepG 2.2.15, a human liver cancer cell line.
The cell concentration was adjusted to 1×10^5 cells/ml and 1 ml was added to each well of a 24-well cell culture plate, which was then kept in a culture box for 3-4 days at 37° C. under 5% CO2 until cells grew sufficiently, changing culture medium everyday. When the cells matured sufficiently, the test compounds were added to the final concentrations of 0.01, 0.1, and 1 μg/ml. One week after the addition of test compounds, the culture solution was centrifuged at 5,000 rpm for 10 min. 25 μl of supernatant was transferred to a new tube and 5 μl of lysis solution [0.54N NaOH, 0.06% NP40] was added to each tube. After keeping the tube at 37° C. for 1 hr, 30 μl of neutralizing solution [0.09N HCl 0.1MTris-HCl, pH7.4] was added as a reaction solution for competitive polymerase chain reaction (PCR).
PCR was performed using genetic sequence of HBV core protein as a matrix. PCR reaction was carried out by adding 1 unit of Taq polymerase enzyme to 25 pmol of each primer, 250 μM dNTP, 5 μl of PCR reaction solution [0.54N NaOH, 0. 06% NP40, 0.09N HCl, 0.1M Tris-HCl, pH 7.4].
DNA polymerized by PCR was electrophoresed on Agarose gel and quantitatively analyzed using an image analyzer (Gel Doc 1000, Bio-Rad) in order to evaluate the effect of compounds of the present invention on the reduction of HBV proliferation.
3TC (lamivudine) was used as a positive control at the same concentrations as those of the test compounds. The percentage of reduction in HBV proliferation was calculated using the group without test compound as a control and the results are represented in Table 4.

The next series concerns the target T1, HBV polymerase (Hepatitis B virus genotype A2 subtype adw2, UniProt P03159).
T1 construct: made in house; host or cells: E. coli
As to the kind of experiment: In vitro reverse transcription activity of HBV polymerase (ELISA-type, DIG/biotin nucleotides). Type of series: biochemical. Particulars: for inhibition at 0.01 µg/mL / inhibition at 0.1 µg/mL / inhibition at 1 µg/mL: read-out: Inhibition activity on HBV-RT (%). On the procedure:
<Experiment 1> Inhibitory Effect on the In Vitro Activities of HBV Polymerase in Reverse Transcription
The following in vitro experiment was performed to determine the effect of the compounds of formula 1 on the activity of HBV polymerase during reverse transcription.
The present inventors submitted application for a patent concerning HBV polymerase genetically expressed in and separated from E.coli, the process of its preparation, and the method to measure the enzyme activities (KR 94-3918, KR 96-33998). In the present experiments HBV polymerase was used which had been expressed in E. coli as stated above.
The method used in the present invention to measure in vitro reverse transcribing activities of HBV polymerase is as follows. Basic principles are the same as for ELISA. Nucleotides with biotin or digoxigenin group attached are included as substrates and anti-DIG antibodies attached to peroxidase enzyme recognize the polymerized substrates.
To the wells coated with streptavidin, 20 μl of HBV polymerase, 20 μl of reaction mixture (10 μM each of DIG-UTP and Biotin-UTP, 46 mM Tris-HCl, 266 mM KCl, 27.5 mM MgCl2, 9.2 mM DTT substrate/primer nybrid), and 20 μl of test compound (added to 1, 0.1, and 0.01 μg/ml) were added and allowed to react at 22° C. for 15 hrs. During this reaction, HBV polymerase catalyzes DNA synthesis and digoxigenin and biotin attached to nucleotides form bonds with streptavidin coated on the bottom of wells. When the reaction was done, each well was washed with 250 μl of cleaning buffer (pH 7.0) for 30 seconds, which was repeated five times to remove remaining impurities. 200 μl of anti-DIG-POD antibody was added to each well and allowed to react for 1 hr at 37° C., and the wells were washed with cleaning buffer to remove impurities. 200 μl each of ABTS™, a substrate of peroxidase, was then added and allowed to react at room temperature for 30 min. Absorbance was measured at 405 nm using ELISA reader.
The percentage of reduction in HBV polymerase activities for reverse transcription was calculated using the group without test compound as a control and the results are shown in Table 3.

For series [1], the target named is T2, HIV reverse transcriptase (Human immunodeficiency virus type 1 group M subtype B, UniProt P03366).
T2 construct: purchased Boehringer Mannheim
As to the kind of experiment: In vitro HIV reverse transcriptase activity (non-radioactive RT assay kit). Type of series: biochemical. On the procedure: <Experiment 3> Inhibitory Effect on the In Vitro HIV Enzyme Activities in Reverse Transcription
The following in vitro experiments were done to determine the effect of compounds of formula 1 on the reduction of HIV enzyme activities in reverse transcription.
Non-radioactive reverse transcriptase assay kit (Boehringer Mannheim) was used in the measurement of in vitro transcriptase activities. 20 μl (40 ng) of HIV transcriptase and 20 μl of reaction mixture containing matrix-primer hybrid poly(A)oligo(dT)15, DIG(digoxigenin)-dUTP, biotin-dUTP, and TTP were added to wells coated with streptavidin. Test compounds were also added at the final concentrations of 0.1 and 1 μg/ml and allowed to react at 37° C. for 1 hr. At this time, DNA is formed from RNA by the action of HIV reverse transcriptase, forming bonds with streptavidin coated on the bottom of wells because of digoxigenin and biotin moieties attached to nucleotides.
When the reaction was completed, each well was washed with 250 μl of cleaning buffer (pH7.0) for 30sec. five times to remove remaining impurities. 200 μl of anti-DIG-POD […] was added to each well, allowed to react at 37° C. for 1 hr and washed as above to remove impurities. 200 μl of ABTS™, a substrate for peroxidase, was added to each well and allowed to react at room temperature for 30 min. Absorbance at 405 nm was then read for each solution using ELISA reader and used for quantitative determination of inhibitory effect on the HIV transcriptase activities. The percentage of reduction in the activities of HIV reverse transcriptase was calculated using the group without test compound as control and the results are represented in Table 5.

T1 sequence (P03159 whole entry): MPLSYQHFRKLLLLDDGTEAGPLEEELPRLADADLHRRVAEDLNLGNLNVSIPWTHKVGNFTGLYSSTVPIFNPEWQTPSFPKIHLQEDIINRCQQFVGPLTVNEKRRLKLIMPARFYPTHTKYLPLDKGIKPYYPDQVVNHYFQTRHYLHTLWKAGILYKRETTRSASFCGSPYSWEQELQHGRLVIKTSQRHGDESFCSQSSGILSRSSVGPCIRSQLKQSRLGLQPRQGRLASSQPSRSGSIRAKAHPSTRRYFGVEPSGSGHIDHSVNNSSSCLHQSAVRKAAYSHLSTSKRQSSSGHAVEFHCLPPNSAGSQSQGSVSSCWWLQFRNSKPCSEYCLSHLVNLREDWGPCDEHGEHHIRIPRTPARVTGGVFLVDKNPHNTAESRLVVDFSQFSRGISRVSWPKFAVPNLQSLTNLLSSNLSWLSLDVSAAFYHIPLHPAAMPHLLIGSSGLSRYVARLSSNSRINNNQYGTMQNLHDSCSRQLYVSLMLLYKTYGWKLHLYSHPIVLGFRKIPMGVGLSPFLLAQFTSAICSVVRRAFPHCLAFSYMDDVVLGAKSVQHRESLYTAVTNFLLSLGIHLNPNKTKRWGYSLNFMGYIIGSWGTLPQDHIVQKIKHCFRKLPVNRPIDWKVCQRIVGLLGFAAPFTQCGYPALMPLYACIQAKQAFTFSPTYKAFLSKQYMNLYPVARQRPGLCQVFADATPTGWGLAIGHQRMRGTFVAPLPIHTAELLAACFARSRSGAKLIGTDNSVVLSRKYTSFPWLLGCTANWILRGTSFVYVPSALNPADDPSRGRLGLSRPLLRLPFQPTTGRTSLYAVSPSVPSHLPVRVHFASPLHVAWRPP

As a reminder, the melting point is the temperature of the solid-liquid transition. As for `O=[N+]([O-])c1ccc(N2CCNCC2)nc1Nc1ccc2[nH]ncc2c1` [Example 23, 2-(1H-5-indazolylamino)-3-nitro-6-(1-piperazinyl)pyridine], the melting point was 270 °C (dec.). In addition, the inhibition at 0.01 µg/mL in the series on HBV (0.01 μg/ml) turned out to be 35%. Moreover, the inhibition at 0.1 µg/mL in the series with HBV (0.1 μg/ml) was found to be 55%. Moreover, the inhibition at 1 µg/mL in the series on HBV (1 μg/ml) was 92%. Also, the inhibition at 0.01 µg/mL on HBV polymerase (0.01 μg/ml test compound) is 51%. The inhibition at 0.1 µg/mL at HBV polymerase (0.1 μg/ml test compound) worked out at 66%. The inhibition at 1 µg/mL on HBV polymerase (1 μg/ml test compound) came to 96%.

For the molecule `CN1CCN(Nc2ccc([N+](=O)[O-])c(Nc3ccc4cn[nH]c4c3)n2)CC1` [Example 18, 2-(1H-6-indazolylamino)-6-(4-methyl-1-piperazinyl)amino-3-nitropyridine], the melting point is 260 °C (dec.). Also, the inhibition at 0.01 µg/mL at HBV polymerase (0.01 μg/ml test compound) came to 25%. For the same molecule, the inhibition at 0.1 µg/mL at HBV polymerase (0.1 μg/ml test compound) is 43%. For the same molecule, the inhibition at 1 µg/mL at HBV polymerase (1 μg/ml test compound) turned out to be 70%.

Take `O=[N+]([O-])c1ccc(NCc2ccccn2)nc1Nc1ccc2cn[nH]c2c1` [Example 22, 2-(1H-6-indazolylamino)-3-nitro-6-(2-pyridyl)methylaminopyridine]: the melting point was 256 °C (dec.). Also, the inhibition at 0.01 µg/mL on HBV polymerase (0.01 μg/ml test compound) was 49%. For the same molecule, the inhibition at 0.1 µg/mL at HBV polymerase (0.1 μg/ml test compound) is 60%. The inhibition at 1 µg/mL at HBV polymerase (1 μg/ml test compound) amounted to 81%.

With `O=[N+]([O-])c1ccc(NC(CO)CO)nc1Nc1ccc2[nH]ncc2c1` [Example 14, 6-[bis(hydroxymethyl)methylamino)-2-(1H-5-indazolylamino)-3-nitropyridine], the melting point is > 270 °C. Further, the inhibition at 0.01 µg/mL in the series on HBV (0.01 μg/ml) worked out at 22%. Further, in the series with HBV (0.1 μg/ml), the inhibition at 0.1 µg/mL was 41%. Further, the inhibition at 1 µg/mL with HBV (1 μg/ml) came to 80%. The inhibition at 0.01 µg/mL on HBV polymerase (0.01 μg/ml test compound) turned out to be 30%. Besides, the inhibition at 0.1 µg/mL on HBV polymerase (0.1 μg/ml test compound) stood at 49%. The inhibition at 1 µg/mL on HBV polymerase (1 μg/ml test compound) is 85%. The “Inhibitory effect on the activities of HIV reverse transcriptase: Inhibition activity on HIV-RT (%)” value (shortened to “Inhibitory effect on the activities … (%)”) in series [1] (0.1 μg/ml test compound) worked out at 44%. The “Inhibitory effect on the activities … (%)” value in series [1] (1 μg/ml test compound) was found to be 59%.

As for `O=[N+]([O-])c1ccc(NCc2ccncc2)nc1Nc1ccc2[nH]ncc2c1` [Example 21, 2-(1H-5-indazolylamino)-3-nitro-6-(4-pyridyl)methylaminopyridine], the inhibition at 0.01 µg/mL in the series on HBV (0.01 μg/ml) amounted to 33%; at HBV polymerase (0.01 μg/ml test compound), 45%. In addition, the values for the inhibition at 0.1 µg/mL in the series on HBV (0.1 μg/ml) and on HBV polymerase (0.1 μg/ml test compound) were 50% and 65%, respectively. Also, the inhibition at 1 µg/mL was determined as 90% in the series with HBV (1 μg/ml) and 94% at HBV polymerase (1 μg/ml test compound). In addition, the “Inhibitory effect on the activities … (%)” value in series [1] (0.1 μg/ml test compound) was 39%; in series [1] (1 μg/ml test compound), 72%.

With `O=[N+]([O-])c1ccc(NCc2cccnc2)nc1Nc1ccc2cn[nH]c2c1` [Example 20, 2-(1H-6-indazolylamino)-3-nitro-6-(3-pyridyl)methylaminopyridine], the melting point is > 270 °C. Further, the inhibition at 0.01 µg/mL at HBV polymerase (0.01 μg/ml test compound) came to 21%. For the same molecule, the inhibition at 0.1 µg/mL at HBV polymerase (0.1 μg/ml test compound) amounted to 40%. Moreover, the inhibition at 1 µg/mL on HBV polymerase (1 μg/ml test compound) came to 66%. In series [1] (0.1 μg/ml test compound), the “Inhibitory effect on the activities … (%)” value is reported as 53%. The “Inhibitory effect on the activities … (%)” value in series [1] (1 μg/ml test compound) was determined as 84%.

Consider `O=[N+]([O-])c1ccc(N2CCNCC2)nc1Nc1ccc2cn[nH]c2c1` [Example 24, 2-(1H-6-indazolylamino)-3-nitro-6-(1-piperazinyl)pyridine], for which the melting point is 268 °C (dec.). Besides, the inhibition at 0.01 µg/mL on HBV polymerase (0.01 μg/ml test compound) is 20%. Further, the inhibition at 0.1 µg/mL on HBV polymerase (0.1 μg/ml test compound) is 43%. On HBV polymerase (1 μg/ml test compound), the inhibition at 1 µg/mL came out at 62%.

On to `CC(C)Nc1ccc([N+](=O)[O-])c(Nc2ccc3[nH]ncc3c2)n1` [Example 5, 2-(1H-5-indazolylamino)-6-isopropyl amino-3-nitropyridine], for which the “Inhibitory effect on the HBV proliferation: Inhibition activity on HBV-RT (%)” value is 41% in the series on HBV (0.01 μg/ml), 81% in the series on HBV (0.1 μg/ml) and 94% with HBV (1 μg/ml). In addition, the “Inhibition activity on HBV-RT (%)” value is on record as 53% at HBV polymerase (0.01 μg/ml test compound), 87% on HBV polymerase (0.1 μg/ml test compound) and 96% on HBV polymerase (1 μg/ml test compound). Moreover, the “Inhibitory effect on the activities … (%)” value in series [1] (0.1 μg/ml test compound) turned out to be 20%; in series [1] (1 μg/ml test compound) it was 55%.

Regarding `O=[N+]([O-])c1ccc(NN2CCOCC2)nc1Nc1ccc2[nH]ncc2c1` [Example 30, 2-(1H-5-indazolylamino)-6-(4-morpholinyl)amino-3-nitropyridine], the melting point was > 270 °C. Moreover, the inhibition at 0.01 µg/mL at HBV polymerase (0.01 μg/ml test compound) was found to be 32%. Also, at HBV polymerase (0.1 μg/ml test compound), the inhibition at 0.1 µg/mL came out at 49%. On HBV polymerase (1 μg/ml test compound), the inhibition at 1 µg/mL was determined as 71%.

With `CN1CCN(c2ccc([N+](=O)[O-])c(Nc3ccc4cn[nH]c4c3)n2)CC1` (hydrate or solvate) [Example 26, 2-(1H-6-indazolylamino)-6-(4-methyl-1-piperazinyl)-3-nitropyridine], the melting point is 253 °C (dec.).

With `CNc1ccc([N+](=O)[O-])c(Nc2ccc3cn[nH]c3c2)n1` [Example 4, 2-(1H-6-indazolylamino)-6-methyl amino-3-nitropyridine], the “Inhibitory effect on the HBV proliferation: Inhibition activity on HBV-RT (%)” value in the series with HBV (0.1 μg/ml) stood at 40%; in the series with HBV (1 μg/ml), 58%. Moreover, the “Inhibition activity on HBV-RT (%)” value at HBV polymerase (0.01 μg/ml test compound) was determined as 26%; on HBV polymerase (0.1 μg/ml test compound) it was 51%; at HBV polymerase (1 μg/ml test compound) it was 60%. Moreover, the entries for the “Inhibitory effect on the activities … (%)” value in series [1] (0.1 μg/ml test compound) and in series [1] (1 μg/ml test compound) were 51% and 70%, respectively.

For the origin of these results see patent publication US6743795B1, “3-nitropyridine derivaives and the pharmaceutical compositions containing said derivatives” (Dong Wha Pharm. Ind. Co. Ltd., priority 1999, dated 2004).
